Results from patent publication US9822131B2, “Certain chemical entities, compositions and methods” (Intellikine LLC, priority 2008, dated 2017).

Experiments:
Balb/c splenic B cells = experiment: B cell activation and proliferation assay (Alamar Blue); type: cell-based; details: Mus musculus, read-out: B cell proliferation EC50 (nM)
Protocol: The assay is performed in a 96 well microtiter plate using Alamar Blue reduction. Balb/c splenic B cells are purified over a Ficoll-Paque™ PLUS gradient followed by magnetic cell separation using a MACS B cell Isolation Kit (Miletenyi). Cells are plated in 90 ul at 50,000 cells/well in B Cell Media (RPMI+10% FBS+Penn/Strep+50 uM bME+5 mM HEPES). A compound disclosed herein is diluted in B Cell Media and added in a 10 ul volume. Plates are incubated for 30 min at 37 C and 5% CO2 (0.2% DMSO final concentration). A 50 ul B cell stimulation cocktail is then added containing either 10 ug/ml LPS or 5 ug/ml F(ab′)2 Donkey anti-mouse IgM plus 2 ng/ml recombinant mouse IL4 in B Cell Media. […] A volume of 15 uL of Alamar Blue reagent is added to each well and plates are incubated for 5 hours at 37 C and 5% CO2. Alamar Blue fluoresce is read at 560Ex/590Em, and IC50 or EC50 values are calculated using GraphPad Prism 5.

basophilic granulocytes = experiment: Basotest assay; type: cell-based; details: heparinized whole blood, dust mite or grass extract allergen
Protocol: The baseotest assay is performed using Orpegen Pharma Basotest reagent kit. Heparinized whole blood is pre-incubated with test compound or solvent at 37 C for 20 min. Blood is then incubated with assay kit stimulation buffer (to prime cells for response) followed by allergen (dust mite extract or grass extract) for 20 min. The degranulation process is stopped by incubating the blood samples on ice. The cells are then labeled with anti-IgE-PE to detect basophilic granulocytes, and anti-gp53-FITC to detect gp53 (a glycoprotein expressed on activated basophils). After staining red blood cells are lysed by addition of Lysing Solution. Cells are washed, and analyzed by flow cytometry.

[1] = tested on: collagen induced developing arthritis model; experiment: Rat developing type II collagen induced arthritis assay; type: in vivo
Protocol: In order to study the effects of the compounds of the present invention on the autoimmune disease arthritis, a collagen induced developing arthritis model was used. Female Lewis rats were given collagen injections at day 0. Bovine type II collagen was prepared as a 4 mg/ml solution in 0.01N acetic acid. Equal volumes of collagen and Freund's incomplete adjuvant were emulsified by hand mixing until a bead of the emulsified material held its form in water. Each rodent received a 300 μl injection of the mixture at each injection time spread over three subcutaneous sites on the back.
Oral compound administration began on day 0 and continued through day 16 with vehicle (5% NMP, 85% PEG 400, 10% Solutol) or compounds of the present invention in vehicle or control (e.g. methotrexate) at 12 hour intervals daily. Rats were weighed on days 0, 3, 6, 9-17 and caliper measurements of ankles taken on days 9-17. Final body weights were taken, and then the animals were euthanized on day 17. After euthanization, blood was drawn and hind paws and knees were removed. Blood was further processed for pharmacokinetics experiments as well as an anti-type II collagen antibody ELISA assay. Hind paws were weighed and then with the knees preserved in 10% formalin. The paws and knees were subsequently processed for microcopy. Livers, spleen and thymus were also weighed. Sciatic nerves were prepared for histopathology.
Knee and ankle joints were fixed for 1-2 days and decalcified for 4-5 days. Ankle joints were cut in half longitudinally, knees were cut in half along the frontal plane. Joints were then processed, embedded, sectioned and stained with toluidine blue. Scoring of the joints was done according to the following criteria:
Percent inhibition of paw weight and AUC was calculated using the following formula: % Inhibition=A−B/A×100 A=Mean Disease Control−Mean Normal B=Mean Treated−Mean Normal

[2] = tested on: established type II collagen induced arthritis; experiment: Rat established type II collagen induced arthritis assay; type: in vivo; details: oral
Protocol: In order to examine the dose responsive efficacy of the compounds of the present invention in inhibiting the inflammation, cartilage destruction and bone resorption of 7 day established type II collagen induced arthritis in rats, compounds were administered orally daily or twice daily for 6 days.
Female Lewis rats were anesthetized and given collagen injections prepared and administered as described previously on day 0. On day 6, animals were anesthetized and given a second collagen injection. Caliper measurements of normal (pre-disease) right and left ankle joints were performed on day 9. On days 10-11, arthritis typically occurred and rats were randomized into treatment groups. Randomization was performed after ankle joint swelling was obviously established and there was good evidence of bilateral disease.
After an animal was selected for enrollment in the study, treatment was initiated by the oral route. Animals were given vehicle, control (Enbrel) or compound doses, twice daily or once daily (BID or QD respectively). Dosing was administered on days 1-6 using a volume of 2.5 ml/kg (BID) or 5 ml/kg (QD) for oral solutions. Rats were weighed on days 1-7 following establishment of arthritis and caliper measurements of ankles taken every day. Final body weights were taken on day 7 and animals were euthanized.

[3] = tested on: adjuvant induced arthritis model; experiment: Adjuvant induced arthritis assay; type: in vivo
Protocol: Isoflurane-anesthetized Lewis rats (200-250 g) were implanted with an intrathecal (IT) catheter. After a 6 d recovery period, all animals except those that appeared to have sensory or motor abnormalities (fewer than 5% of the total number) were used for experiments. For IT administration, 10 μl of drug or saline followed by 10 μl of isotonic saline was injected through the catheter.
Lewis rats were immunized at the base of the tail with 0.1 ml of complete Freund's adjuvant (CFA) on day 0 several days after catheter implantation (n=6/group). Drug (e.g. one or more compounds of the present invention or vehicle) treatment was generally started on day 8 and continued daily until day 20. Clinical signs of arthritis generally begin on day 10, and paw swelling was determined every second day by water displacement plethysmometry.

Row | SMILES | EC50 (Balb/c splenic B cells) | inhibition of allergen induced activation of basophilic granulocytes (basophilic granulocytes) | ankle histopathology, all categories ([1]; 60 mg/kg, FIG. 4) | serum anti-type II collagen levels ([1]; 10, 20, and 60 mg/kg dosage levels, FIG. 6) | arthritis induced ankle diameter increase over time ([1]; 10, 30, and 60 mg/kg at 12 hour intervals, oral, relative to vehicle or methotrexate control) | knee histopathology ([1]; FIG. 5) | ankle histopathology (inflammation, pannus, cartilage damage, bone resorption) ([1]; oral, 12 hour intervals, FIG. 4) | mean ankle diameter increase over time ([2]; once daily dosage, FIG. 8) | mean ankle diameter increase over time ([2]; twice daily dosage, FIG. 9) | average paw volume increase ([3]; FIG. 10) | toxicity or other adverse reaction as measured by weight loss ([3]; FIG. 11, average weight over time)
1 | CC(=O)Nc1nc2ccc(-c3nn(Cc4cc5cccc(C)c5c(=O)n4-c4ccccc4C)c4ncnc(N)c34)cc2s1 [Compound 53] | < 100 nM | sub micromolar range |  |  |  |  |  |  |  |  | 
2 | CC(=O)Nc1nc2ccc(-c3nn(Cc4cc5cccc(C)c5c(=O)n4-c4ccccc4C)c4ncnc(N)c34)cc2s1 [#53] |  |  | statistically significant reduction in all categories | significant reduction | significant reduction | dose dependent reduction | significant reduction in one or more categories | significant reduction | significant reduction | dose dependent reduction | does not exhibit toxicity or other adverse reaction
